# Laboratory results as given in patent US9340821B2, “Specific fluorescent probe based on albumin pseudo-esterase hydrolysis reaction and use thereof” (DALIAN INSTITUTE OF CHEMICAL PHYSICS, CHINESE ACADEMY OF …, priority 2013, dated 2016).
# Legend:
# [1] = molecular target: T1, HSA (Homo sapiens, UniProt P02768); assay: Quantitative analysis of albumin in human plasma sample; parameters: from tissue; host or cells: human plasma (A3); human urine (A4); details: human plasma diluted 200 times in PBS pH 7.4, probe 10 μM, 45° C., 30 min
# Description: (1) 1 μL of human plasma sample was diluted to 200 times by PBS (pH 7.4, 10 mM), then samples were incubated turmoil at 45° C. for 10 min.
# (2) 4 μL fluorescent probe B (0.5 mM) was added to the above solution to make the final concentration of the fluorescent probe to 10 μM, and then samples were incubated at 45° C.
# (3) After 30 min, 200 μL of ice-cold CH3CN was added to the sample and stirred, and then the reaction was stopped.
# (4) Detecting the fluorescence intensity of probe B (λex=342 nm, λem=416 nm) and hydrolysate B1 (λex=452 nm, λem=564 nm) at corresponding wavelength and calculating the fluorescence intensity ratio of B1 to B, the fluorescence ratio was substituted into working curve from example 2, concentration of HSA in plasma albumin was calculated as […].
# [2] = molecular target: T1, HSA; assay: Quantitative analysis of albumin in urine sample; details: human urine diluted with PBS pH 7.4, probe 10 μM, 37° C., 30 min
# Description: (1) 490 μL of human urine sample was diluted by 490 μL PBS (pH 7.4, 10 mM), and then samples were incubated at 45° C. for 10 min.
# (2) 20 μL fluorescent probe C (0.5 mM) was added to the above solution to make the final concentration of the fluorescent probe to 10 μM, and then samples were incubated turmoil at 37° C. for 30 min, 1 mL ice-cold CH3CN was added to the sample and stirred for 15 second, then the reaction was stopped.
# (3) Detecting the fluorescence intensity of probe C (λex=342 nm, λem=416 nm) and hydrolysate C1 (λex=452 nm, λem=564 nm) at corresponding wavelength and the fluorescence intensity ratio of C1 to C was calculated.
# (4) Finding the corresponding albumin level in the working curve, concentration of HSA in the sample was calculated as 48 mg/L.
# [3] = molecular target: T1, HSA; assay: Quantitative analysis of HSA in recombinant expression system; details: 1 mg/mL recombinant HSA in PBS pH 7.4, probe 10 μM, 37° C., 30 min
# Description: (1) 10 mg recombinant HSA was weighted and dissolved in PBS (pH=7.4), configuring to 1 mg/mL albumin solution at 37° C.
# (2) 20 μL fluorescent probe D (0.5 mM) was added to the above solution to make the final concentration of the fluorescent probe to 10 μM, and then samples were incubated turmoil at 37° C. for 30 min, 1 mL ice-cold CH3CN was added to the sample and stirred for 15 second, then the reaction stopped.
# (3) Detecting the fluorescence intensity of probe D (λex=342 nm, λem=416 nm) and hydrolysate D1 (λex=452 nm, λem=564 nm) at corresponding wavelength and the fluorescence intensity ratio of D1 to D was calculated.
# (4) Based on the working curve, the concentration of HSA in this sample (1 mg/mL recombinant HSA solution) was calculated as 14.9 μM.
# T1 sequence (P02768 25-609): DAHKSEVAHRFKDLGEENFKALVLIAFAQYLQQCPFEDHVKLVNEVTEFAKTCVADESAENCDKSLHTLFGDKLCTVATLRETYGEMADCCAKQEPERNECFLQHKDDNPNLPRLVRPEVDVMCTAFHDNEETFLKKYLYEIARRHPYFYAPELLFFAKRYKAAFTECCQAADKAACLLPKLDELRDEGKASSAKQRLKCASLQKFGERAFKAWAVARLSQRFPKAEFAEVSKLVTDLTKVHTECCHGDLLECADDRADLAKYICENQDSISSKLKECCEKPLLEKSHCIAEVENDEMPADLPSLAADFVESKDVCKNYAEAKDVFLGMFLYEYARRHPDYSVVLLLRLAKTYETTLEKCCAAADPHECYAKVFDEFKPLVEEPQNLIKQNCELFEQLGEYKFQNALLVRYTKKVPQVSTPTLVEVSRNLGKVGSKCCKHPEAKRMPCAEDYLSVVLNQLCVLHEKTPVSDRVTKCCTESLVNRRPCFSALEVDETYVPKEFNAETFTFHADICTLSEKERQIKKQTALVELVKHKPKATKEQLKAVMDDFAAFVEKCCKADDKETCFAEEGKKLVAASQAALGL
compound,measurement,setting,value
"CCCCN1C(=O)c2cccc3c(OC(=O)c4ccc(C)cc4)ccc(c23)C1=O [Probe B, N-n-butyl-1,8-naphthalimide-4-(4-methylphenylbenzoate)]",concentration of HSA in plasma calculated from fluorescence ratio,[1],46.2 mg/mL
"O=C(O)CCCN1C(=O)c2cccc3c(OC(=O)c4ccc(-c5ccccc5)cc4)ccc(c23)C1=O [Probe C, N-3-carboxy propyl-1,8-naphthalimide-4-phenylbenzoate]",concentration of HSA in urine sample calculated from working curve,[2],48 mg/L
"CCCCN1C(=O)c2cccc3c(OC(=O)c4ccc(OC)cc4)ccc(c23)C1=O [Probe D, N-n-butyl-1,8-naphthalimide-4-(4-methoxyphenylbenzoate)]",concentration of HSA in recombinant HSA solution calculated from working curve,[3],14.9 µM
